The values below come from patent publication US9340577B2, “HLA binding motifs and peptides and their uses” (priority 1992, dated 2016).

pIC50: −log10 of the molar value. No end group written: not given here.

As usually defined, the pIC50 is the negative decadic logarithm of the IC50, by convention in mol/L. Low values mean a high IC50, high ones a low IC50.

Assay in all cases: biochemical
What all share (type): binding

The target of assay [1] is A31 (A*3101) (Homo sapiens, UniProt P04439, A270S/D185E/E176V/E277Q/F33T/G231S/G80R/H175R/I121M/I218V/I322F/K168Q/L300P/L318F/M331R/P217A/Q94H/R138Q/T323A/T345S/T97I/V358M).
Assay [2] concerns the target HLA-A3.2 (A*0301) (Homo sapiens, UniProt P04439).
The target in assay [3] is A*6801 (Homo sapiens, UniProt P04439, A269V/D185E/E176V/E277Q/E87N/F33Y/G231S/I121M/I166T/I218V/L180W/L300P/L318F/N151K/P208A/P217A/Q86R/R169H/T345S).
Assay [4] deals with A*3301 (Homo sapiens, UniProt P04439, A270S/D185E/E176V/E277Q/E87N/F33T/G231S/H175R/I121M/I218V/I322F/K168Q/K210R/L300P/L318F/M331R/P217A/Q86R/Q94H/R138Q/T323A/T345S/T97I/V358M/Y195H).
In assay [5] the target is HLA-A11 (A*1101) (Homo sapiens, UniProt P04439, A114D/D185E/E176A/F33Y/L180Q/S129P/T187R).

Take RLLKETELRK [Peptide 9012.0248]: the pIC50 in assay [1] is 5.15; in assay [2], 7.57; in assay [3], 4.89; in assay [4] it was < 4.70; in assay [5], 7.28.

For the sequence RQMNMSQWIK [Peptide 1587.54], the pIC50 in assay [1] was 7.39; in assay [2], 7.74; in assay [3], 5.51; in assay [4], < 4.70; in assay [5] it was 8.12.

As to RQMSMGQWIK [Peptide 1587.35], the pIC50 in assay [1] is 7.32; in assay [2] it was 7.28; in assay [3], 5.65; in assay [4] it was < 4.70; in assay [5], 8.22.

Take RVLQGLPREK [Peptide 9012.0238]: the pIC50 in assay [1] is 7.06; in assay [2], 7.42; in assay [3] it was 4.84; in assay [4], < 4.70; in assay [5] it was 7.46.

In the case of SFFQNLQVIR [Peptide 9012.0232], the pIC50 in assay [1] was 6.36; in assay [2] it was 5.42; in assay [3] it was 5.85; in assay [4], 6.15; in assay [5] it was 5.40.

In the case of SFFSRTWCR [Peptide 1587.42], the pIC50 in assay [1] is 8.66; in assay [2], 5.62; in assay [3], 7.55; in assay [4], 8.46; in assay [5] it was 6.81.

Take SFFSRTWSR [Peptide 1587.16]: the pIC50 in assay [1] was 9.54; in assay [2], 5.94; in assay [3] it was 8.44; in assay [4], 9.23; in assay [5], 7.59.

Take SFMELVRPFK [Peptide 88.0163]: the pIC50 in assay [1] is 8.11; in assay [2] it was 5.70; in assay [3] it was 5.86; in assay [4], 8.48; in assay [5], 6.70.

Take SFSELVRPFK [Peptide 1587.03]: the negative logarithm of the IC50 (pIC50) in assay [1] was 8.70; in assay [2], 5.37; in assay [3], 5.27; in assay [4], 7.62; in assay [5] it was 6.26.

Regarding SIVGWPAVR [Peptide 9017.0058], the pIC50 in assay [1] was 7.10; in assay [2] it was 5.96; in assay [3], 7.68; in assay [4], 6.33; in assay [5] it was 6.20.

For SQIEHWKLIR [Peptide 88.0213], the pIC50 in assay [1] is 6.29; in assay [2], 4.78; in assay [3], 5.88; in assay [4], < 4.70; in assay [5], 7.07.

SQWIKYRCDR [Peptide 88.0136]: the pIC50 in assay [1] is 6.38; in assay [2], 4.72; in assay [3], < 4.70; in assay [4] it was 5.57; in assay [5], 4.96.

Take SSCMGGMNR [Peptide 1556.59]: the pIC50 in assay [1] is 7.27; in assay [2] it was 6.69; in assay [3], 6.96; in assay [4], 7.41; in assay [5] it was 7.80.

On to SSIVGWPAVR [Peptide 9017.0185], for which the negative logarithm of the IC50 (pIC50) in assay [1] is 7.59; in assay [2], 5.50; in assay [3], 7.85; in assay [4] it was 6.19; in assay [5], 7.66.

With STAAALYWYR [Peptide 1587.32], the pIC50 is 8.62 in assay [1]; 7.05 in assay [2]; 8.39 in assay [3]; 7.55 in assay [4]; 8.40 in assay [5].

For STCMGGMNR [Peptide 1556.61], the pIC50 was 6.80 in assay [1]; 6.55 in assay [2]; 5.79 in assay [3]; 4.75 in assay [4]; 5.96 in assay [5].

Consider STVSVGTAK [Peptide 1589.09], for which the pIC50 in assay [1] was 5.75; in assay [2], 7.47; in assay [3] it was 8.00; in assay [4] it was 4.79; in assay [5], 8.22.

For the sequence STWHWTGCNK [Peptide 1589.28], the negative-log IC50 (pIC50) is 6.80 in assay [1]; 7.14 in assay [2]; 7.49 in assay [3]; 5.72 in assay [4]; 7.82 in assay [5].

Turning to SVAALYWYR [Peptide 88.0341], the pIC50 in assay [1] was 8.43; in assay [2] it was 7.49; in assay [3] it was 8.39; in assay [4], 9.06; in assay [5] it was 8.35.

With SVICFVNSK [Peptide 1587.15], the pIC50 is 5.72 in assay [1]; 6.96 in assay [2]; 8.07 in assay [3]; 5.55 in assay [4]; 8.46 in assay [5].

Take SVRKLTEDR [Peptide 9017.0106]: the pIC50 in assay [1] was 7.32; in assay [2], 4.78; in assay [3], 6.65; in assay [4] it was 6.19; in assay [5], 5.12.

With SVYGDTLEK [Peptide 78.0277], the pIC50 was < 4.70 in assay [1]; 7.14 in assay [2]; 7.77 in assay [3]; < 4.70 in assay [4]; 7.85 in assay [5].

For the sequence SVYGETLEK [Peptide 78.0291], the pIC50 in assay [1] was < 4.70; in assay [2], 6.46; in assay [3], 5.58; in assay [4], < 4.70; in assay [5], 6.78.

For SVYGTTLEK [Peptide 78.0282], the negative logarithm of the IC50 (pIC50) in assay [1] is 5.05; in assay [2] it was 7.72; in assay [3], 7.82; in assay [4] it was < 4.70; in assay [5], 8.42.

For TALIKPKKR [Peptide 9017.0102], the negative logarithm of the IC50 (pIC50) in assay [1] was 5.76; in assay [2], < 4.70; in assay [3], 6.53; in assay [4], 6.11; in assay [5] it was 5.56.

Take TFWNPPTTAR [Peptide 1556.02]: the pIC50 is 7.24 in assay [1]; 4.74 in assay [2]; 7.54 in assay [3]; 7.40 in assay [4]; 5.82 in assay [5].

Consider TIAYIEYRK [Peptide 9017.0119], for which the pIC50 in assay [1] is 5.48; in assay [2] it was 6.04; in assay [3], 8.11; in assay [4], 6.05; in assay [5], 7.62.

In the case of TILWKDIFHR [Peptide 9012.0223], the negative-log IC50 (pIC50) in assay [1] was 7.48; in assay [2] it was 5.71; in assay [3] it was 7.59; in assay [4], 7.96; in assay [5], 8.00.

Consider TLWNPPTTAK [Peptide 1556.04], for which the pIC50 is 5.17 in assay [1]; 7.66 in assay [2]; 6.36 in assay [3]; 5.65 in assay [4]; 6.97 in assay [5].

With TLYAEPPK [Peptide 1556.12], the pIC50 in assay [1] was < 4.70; in assay [2], 6.13; in assay [3], 5.70; in assay [4] it was < 4.70; in assay [5], 6.57.

In the case of TQQLQDLFK [Peptide 88.0374], the negative logarithm of the IC50 (pIC50) in assay [1] was < 4.70; in assay [2] it was 5.77; in assay [3] it was 5.18; in assay [4], 5.70; in assay [5], 7.28.

As for TQQMLQVEGR [Peptide 88.0128], the pIC50 in assay [1] is 6.45; in assay [2], < 4.70; in assay [3], 6.13; in assay [4] it was 5.73; in assay [5], 5.52.

Take TTNCTYKGR [Peptide 1589.41]: the pIC50 in assay [1] was 7.24; in assay [2], < 4.70; in assay [3] it was 7.42; in assay [4], 6.78; in assay [5], 5.66.

TTSAELPK [Peptide 1556.23]: the pIC50 in assay [1] was < 4.70; in assay [2], 4.71; in assay [3] it was 5.85; in assay [4] it was < 4.70; in assay [5] it was 6.66.

TTTYSPALNK [Peptide 1556.41]: the pIC50 is < 4.70 in assay [1]; 6.99 in assay [2]; 7.74 in assay [3]; < 4.70 in assay [4]; 8.60 in assay [5].

As to TVHVYFDGNK [Peptide 1589.24], the negative logarithm of the IC50 (pIC50) was < 4.70 in assay [1]; 6.15 in assay [2]; 7.01 in assay [3]; < 4.70 in assay [4]; 7.21 in assay [5].

TVNEYNTHK [Peptide 1589.36]: the negative-log IC50 (pIC50) in assay [1] was 5.39; in assay [2] it was 7.08; in assay [3], 7.31; in assay [4] it was 5.56; in assay [5] it was 7.70.

For TVQVYFDGNK [Peptide 88.0202], the pIC50 in assay [1] was 5.34; in assay [2] it was 5.96; in assay [3] it was 6.92; in assay [4], 4.81; in assay [5], 7.85.

As for TVSAELPR [Peptide 1556.22], the pIC50 in assay [1] was 4.94; in assay [2], < 4.70; in assay [3], 6.67; in assay [4] it was 5.00; in assay [5] it was 5.73.
